Data reported in patent publication US7033829B2, “Method to inhibit cell growth using oligonucleotides” (Trustees of Boston University, priority 2000, dated 2006).
Oligonucleotides are written 5' to 3', each unit as a sugar letter and its base; * is a phosphorothioate linkage, no mark a phosphodiester; rarer units and linkages stand in square brackets, end groups in braces. Plain capitals give the bases only. d = 2'-deoxy (DNA); {P} = phosphate

Key:
[1] = tested on: caspase-3; assay: Caspase-3 activity in Jurkat cells; type: cell-based, human; conditions: 40 μM
Protocol: Duplicate cultures of Jurkat cells were cultured and treated with oligonucleotides as described above. At 48, 72 and 96 hours of treatment, cells were collected by centrifugation, washed and then the pellet lysed by repeated cycles of freeze-thawing. The lysate was then clarified by centrifugation and the supernatant used for protein analysis and Caspase-3 activity assay using the components and instructions of the Colorimetric CaspACE Assay System from Promega (Madison, Wis.). The assay uses the substrate Ac-DEVD-pNA and calorimetrically measures release of free pNA. Caspase activity is expressed as pmol of pNA produced/hour/μg protein.
Apoptosis was also detected by the DNA end-labeling TUNEL assay. Jurkat cells were treated with 40 μM oligonucleotides for 72 hours. Cells were then collected and the TUNEL assay was carried out. […] The activation of caspase-3, another marker of apoptosis, was also examined. Duplicate cultures of Jurkat cells were cultured and treated with oligonucleotides as described above for 48, 72 and 96 hours and caspase-3 activity was measured. The activity of caspase-3 was 50% higher after 48 hours of treatment with the telomere overhang homolog, compared to controls, and 3–4 fold higher in these cells at 72 and 96 hours (FIG. 27). Thus, the oligonucleotide homologous to the telomere 3′ overhang specifically induces an S phase arrest and apoptosis in these cells.

[2] = tested on: contact hypersensitivity; assay: Contact hypersensitivity to DNFB (ear swelling); type: in vivo, C57B16 mice; conditions: 30 μl of 100 μM BID×5d topical to abdominal skin before sensitization
Protocol: C57B16 mice were subjected to the following treatment prior to sensitization with the allergen DNFB, by topical administration to abdominal skin; no pretreatment, UVB irradiation (200 J/m^2/dx4d), pTpT, pApA, or vehicle alone (30 μl of 100 μM BID×5d).

[3] = biological target: p53 (Homo sapiens, UniProt P04637); assay: p53 assay using hGH reporter plasmid in p53-transfected H1299 cells; type: cell-based; set-up: expressed in transfected cells; host or cells: H1299 lung carcinoma cells (p53-null); vector from Dr. Bert Vogelstein; conditions: 100 μM; 24 hours
p53 (Homo sapiens, UniProt P04637), sequence (P04637 whole entry): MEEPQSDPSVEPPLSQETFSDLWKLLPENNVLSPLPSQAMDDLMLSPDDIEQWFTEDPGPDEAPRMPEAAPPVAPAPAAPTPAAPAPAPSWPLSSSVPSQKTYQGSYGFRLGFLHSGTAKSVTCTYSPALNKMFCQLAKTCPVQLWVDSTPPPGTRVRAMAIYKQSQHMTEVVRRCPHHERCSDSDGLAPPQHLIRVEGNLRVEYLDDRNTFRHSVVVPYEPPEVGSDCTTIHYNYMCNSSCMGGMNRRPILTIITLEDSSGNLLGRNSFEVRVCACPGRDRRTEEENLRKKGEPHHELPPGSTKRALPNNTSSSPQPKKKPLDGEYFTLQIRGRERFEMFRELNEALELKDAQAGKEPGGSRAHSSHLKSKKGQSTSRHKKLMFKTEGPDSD
Protocol: H1299 cells were similarly transfected with p53 expression vector or control vector. Two days after the transfection these cells were cotransfected with pPG-GH and PSV-β-galactosidase control vector, and treated with 100 μM pTpT. Twenty-four hours later, 250 μl of the medium and the cell lysate were harvested and processed as described above.

[4] = tested on: p53; assay: p53 immunoperoxidase staining in fibroblasts; type: cell-based, human; conditions: normal neonatal fibroblasts; 100 μM; within 24 hours
Protocol: The effect of pTpT on the level and intracellular distribution of p53 in normal neonatal fibroblasts was examined by immunoperoxidase staining using a p53-specific monoclonal antibody (mAb 421, Oncogene, Cambridge, Mass.). Preconfluent cultures were treated with either 100 μM pTpT or diluent for 24 hours before cell staining. Cells were first fixed for one minute in Histochoice fixative (Amresco, Solon, Ohio) followed by a five-minute rinse in PBS. p53 was detected using the Vectastain Elite ABC kit (Vector Laboratories, Burlingame, Calif.) and the p53-specific monoclonal antibody mAb 421.

[5] = tested on: BP DNA adducts (CAT reporter plasmid) in human keratinocytes; assay: Repair of BP-damaged CAT reporter plasmid in keratinocytes; type: cell-based; conditions: 100 μM 48 hours; ~25 or ~50 adducts/plasmid
Protocol: The pCAT vector (Promega) was treated with benzo[a]pyrene-7,8-diol-9,10-epoxide (BP) as described (Athas et al. Cancer Res 1991) to produce less damaged and more damaged plasmids, previously shown to be instructive in studies examining different repair capacities in human cells. Based on the incorporation of ^3H-BPDE into the DNA, the less damaged plasmid contained 25 adducts per 5 kb plasmid and the more damaged plasmid contained 50 adducts. This non-replicating vector contains the chloramphenicol acetyltransferase gene under control of SV40 promoter and enhancer sequences. […] CAT enzyme activity was determined using the liquid scintillation counting protocol and components of the assay system kit (Promega). ^14C-labeled chloramphenicol[50–60 mCi(1.85–2.22 GBq)/mmol] was purchased from New England Nuclear (Boston, Mass.). […]
To measure the repair of BP DNA adducts, non-replicating BP-damaged reporter plasmid system containing the bacterial chloramphenicol acetyltransferase (CAT) gene was used as described in Example 8. With first passage human keratinocytes, the transfection efficiency, as measured by the cotransfected β-galactosidase expression vector, was 40–70%.

[6] = tested on: p53, PCNA and the XPA protein; assay: Western blot of DNA repair proteins in keratinocytes; type: cell-based, human; conditions: within 2 days of treatment
Protocol: Cells were treated with 100 μM pTpT or an equal volume of diluent alone for 48 hours. Total cellular proteins were collected in a buffer consisting of 0.25 M Tris HCl (pH 7.5), 0.375 M NaCl, 2.5% sodium deoxycholate, 1% Triton X-100, 25 mM MgCl2, 1 mM phenylmethyl sulfonyl fluoride, and 0.1 mg ml aprotinin. Proteins (100 μg per sample) were separated by 7.5–15% SDS-PAGE and transferred to a nitrocellulose membrane (Schleicher & Schuell, Keene, N. H.). After transfer, the gel was stained with Coomassie Blue to verify even loading as visualized by the residual high molecular weight proteins. Membranes were blocked in 0.05% Tween-20/PBS with 5% milk, (Bio-Rad Laboratories, Hercules, Calif.). Antibody reactions were performed with the following antibodies: anti p53 (AB-6), anti PCNA (Ab-2) (Oncogene Science), and anti XPA (FL-273) (Santa Cruz Biotechnology). Sheep anti-mouse Ig linked to horseradish peroxidase (Amersham, Arlington Heights, Ill.) (for p53 and PCNA) and goat anti-rabbit IgG (Bio-Rad)(for XPA) were used as the secondary antibodies. Binding was detected by the ECL detection kit (Amersham).
Western blot analysis was used to examine the effect of pTpT treatment on the expression of selected genes known to be involved in DNA repair.

Substance	caspase-3 activity higher compared to controls ([1]; 72 and 96 hours)	caspase-3 activity higher compared to controls ([1]; 48 hours)	ear swelling responses to DNFB challenge [2]	increase in hGH secretion compared to diluent-treated cells [3]	intranuclear p53 [4]	CAT expression relative to undamaged control vector, compared to diluent [5]	up-regulation of levels of p53, PCNA and XPA protein [6]
pGTTAGGGTTAG (DNA {P}-dGdTdTdAdGdGdGdTdTdAdG) [SEQ ID NO: 5]	3–4 fold	50%					
thymidine dinucleotide [pTpT]			0.9±0.3	40%	an increase in intranuclear p53	approximate doubling of CAT expression	2 to 3 fold
